# Values quoted from earlier work as cited in patent US20240325432A1, “COMPOSITION AND METHODS OF TREATMENT USING TRANSDERMAL SUPPLEMENTATION” (Xygenyx Inc., priority 2023, published 2024).
# Key:
# [1] = as penetration enhancer
# [2] = tested on: wide dynamic range neurons in the ventroposterolateral nucleus of the thalamus; conditions: believed
# [3] = compared to α-tocopherol = 1.0
# [4] = tested on: F2-isoprostane; conditions: 1600-3200 IU/day
# [5] = tested on: rheumatoid arthritis; conditions: arthritic subjects
# [6] = even when dietary intake occurs in equal portions
# [7] = tested on: markers of inflammation in the blood; conditions: individuals with metabolic syndrome
# [8] = in vivo
compound,measurement,setting,value
CC(C)[C@@H]1CC[C@@H](C)C[C@H]1O [Menthol],increase of transdermal drug uptake (factor),[1],≥ 10
"CCCCCc1cc(O)c2c(c1)OC(C)(C)C1CCC(C)=CC21 (stereo not drawn) [THC, Δ-9-tetrahydrocannabinol]",analgesic power relative to morphine,[2],ten times more powerful than morphine
"CC12CCC(CC1)C(C)(C)O2 [eucalyptol, 1,8-epoxy-p-menthane]",increase of transdermal drug uptake (factor),[1],more than 10
Cc1c(C)c2c(c(C)c1O)CC[C@@](C)(CCC[C@H](C)CCC[C@H](C)CCCC(C)C)O2 [α-tocopherol],relative biological activity,[3],1.0
same,blood plasma concentration of F2-isoprostane,[4],significantly lower
same,reduction in the development of age-related cataracts,400-500 IU in combination with 10-20 mg β-carotene and 400-500 mg vitamin C,23%
same,reduction of risk of coronary disease,"dietary supplementation, doses up to 400 IU/day",up to 34%
same,reduction of risk of developing neurodegenerative diseases (Alzheimer's Syndrome or dementia),"dietary supplementation, doses up to 400 IU/day, controlled trials",≤ 24%
C=C1CC/C=C(\C)CC[C@@H]2[C@@H]1CC2(C)C [β-caryophyllene],swelling of joints and lymph nodes,[5],reduced swelling of joints and lymph nodes
Cc1cc(O)c(C)c2c1O[C@](C)(CCC[C@H](C)CCC[C@H](C)CCCC(C)C)CC2 [β-tocopherol],relative biological activity,[3],0.5
Cc1c(O)cc2c(c1C)O[C@](C)(CCC[C@H](C)CCC[C@H](C)CCCC(C)C)CC2 [γ-tocopherol],relative biological activity,[3],0.1
same,concentration in vivo relative to α-tocopherol,[6],roughly 10%
Cc1cc(O)cc2c1O[C@](C)(CCC[C@H](C)CCC[C@H](C)CCCC(C)C)CC2 [δ-tocopherol],relative biological activity,[3],0.03
same,markers of inflammation in the blood,[7],reduced markers of inflammation
HGH: hormone comprising a peptide chain that is synthesized in the pituitary gland,biological half-life,[8],10-20 minutes
